Results as given in patent US12569452B2, “Ophthalmic compositions comprising F6H8” (NOVALIQ GMBH, priority 2017, dated 2026).

What was measured:
[1] = Quantitative autoradiography of whole head after single topical ocular dose of 14C-F6H8; assay type: in vivo, female Dutch Belted rabbits; conditions: single dose 35 μl
Description: Quantitative Autoradiography: Animals are euthanized with sodium pentobarbital and blood is collected via cardiac puncture. Immediately after blood collection, the animals were frozen for quantitative autoradiography. The frozen heads are embedded in chilled carboxymethyl cellulose and frozen into blocks. Appropriate sections are collected on adhesive tape at […], in a Leica CM 3600 cryomicrotome. Mounted sections are exposed for 4 days on phosphor imaging screens along with fortified blood standards for subsequent calibration of the image analysis software and subsequently scanned using a Typhoon scanner. The autoradiographic standard image data are sampled using InterFocus Imaging Ltd. MCID™ Analysis software to create a calibrated standard curve. Specified tissues and fluids are analysed. Tissue concentrations are interpolated from each standard curve as nanocuries/g and then converted to ng equivalents/g on the basis of the test article specific activity.
The highest concentrations (>10000 ng equivalents ^14C—F6H8/g) are found in the anterior tissues in the order eyelid margin (443000)>internal eyelid (171000)>cornea (33500). Other tissues with high concentrations are the external eyelid skin, nasolacrimal duct, and nasal turbinates.

[2] = Ocular tissue distribution after multiple topical ocular doses of 14C-F6H8, liquid scintillation counting; assay type: in vivo, female Dutch Belted rabbits; conditions: for Mean concentration of radioactivity, Conjunctiva (bulbar) / Mean concentration of radioactivity, Conjunctiva (palpebral) / Mean concentration of radioactivity, Cornea / Mean concentration of radioactivity, Lacrimal gland (accessory) / Mean concentration of radioactivity, Lacrimal gland (main) / Mean concentration of radioactivity, Meibomian glands / Mean concentration of radioactivity, Sclera (anterior) / Mean concentration of radioactivity, Tears: multiple dose (nine doses)
Protocol: Animals are not fasted prior to dose administration. All animals receive single 35 μL-drops of the dose formulation in each eye, with the right eye dosed first. All collection times are based on the time of dosing of the second (left) eye for the last dose, as applicable.
After the dose is administered, the eye is allowed to close naturally. Each animal is then restrained for approximately 1 minute to prevent rubbing of the eyes.
Tears and Ocular Tissue Collection: Tears are collected from two animals per group per time point at 0.25, 0.5, 1, 2, 4, 8, and 24 hours post-dose following the single dose or the last dose of the multiple dose scheme. Tears are collected using Tear Flo Test (TFT) strips that were dye free. One strip of paper is used for each eye for each time point. Following collection, the tube containing the strip is placed on dry ice or stored at approximately −70° C. until analysed.
At the time of sacrifice, both eyes are enucleated and ocular tissues including Aqueous humour, Conjunctiva (bulbar), Conjunctiva (palpebral), Lacrimal gland (accessory), Lacrimal gland (main), Meibomian glands (tarsal plate), Choroid-Retinal pigmented epithelium (Choroid-RPE), Cornea, Iris-ciliary body (ICB), Retina, Sclera (anterior), Sclera (posterior), Vitreous humour are collected.
Radioanalysis: All samples are analyzed for radioactivity in a Model 2900TR liquid scintillation counter (Packard Instrument Company) for at least 5 minutes or 100,000 counts, utilizing Ultima Gold XR or Hionic Fluor scintillation cocktails (Perkin Elmer). Each sample is homogenized before radioanalysis, unless the entire sample is used for analysis. All samples are analyzed in duplicate if sample size allows.
For Conjunctiva (bulbar and palpebral), Cornea, Lacrimal gland (main), Meibomian glands, Retina, and Sclera (anterior and posterior), each sample is digested in 2M sodium hydroxide in ethanol (80:20, v:v) and maintained at room temperature or in an oven set no higher than 30° C. until dissolved. Scintillation cocktail is added, and the samples are shaken and analyzed directly by LSC.
For Lacrimal gland (accessory), each sample is digested in 2M sodium hydroxide in ethanol (80:20, v:v) and maintained at room temperature or in an oven set no higher than 30° C. until dissolved. The sample is homogenized by mixing and duplicate weighed aliquots are analyzed directly by LSC.
For Tears, at least 10 mL of Ultima Gold XR scintillation cocktail is added, and the samples are shaken and analyzed by LSC.
Multiple topical ocular administration: The rabbits receive twice daily doses (approximately 12 hours apart±20 minutes) of 35 μl ^14C—F6H8 administered to both eyes for four consecutive days, and on the fifth day receive a single dose in the morning to both eyes (a total of nine doses). The administered dose level at each dosing occasion is approximately 47 mg/eye, equivalent to […]. Following the last dose on Study Day 5, two animals per time point are sacrificed at 0.25, 0.5, 1, 2, 4, 8, and 24 hours post-dose in a sparse sampling profile. Ocular tissues (including tears collected prior to sacrifice) are collected from all animals at sacrifice.

[3] = multiple dose, between 0.25 and 4 hours post-dose

^14C-1-Perfluorohexyloctane [^14C-F6H8]
Highest concentration, cornea [1]: 33500 ng equivalents ^14C—F6H8/g
Highest concentration, eyelid margin [1]: 443000 ng equivalents ^14C—F6H8/g
Highest concentration, internal eyelid [1]: 171000 ng equivalents ^14C—F6H8/g
Mean concentration of radioactivity, Conjunctiva (bulbar) ([2]; 0.25 h after last dose): 8290 ng Equivalents ^14C-F6H8/g
Mean concentration of radioactivity, Conjunctiva (palpebral) ([2]; 0.25 h after last dose): 14000 ng Equivalents ^14C-F6H8/g
Mean concentration of radioactivity, Cornea ([2]; 0.25 h after last dose): 20600 ng Equivalents ^14C-F6H8/g
Mean concentration of radioactivity, Lacrimal gland (accessory) ([2]; 0.25 h after last dose): 7120 ng Equivalents ^14C-F6H8/g
Mean concentration of radioactivity, Lacrimal gland (main) ([2]; 0.25 h after last dose): 7090 ng Equivalents ^14C-F6H8/g
Mean concentration of radioactivity, Meibomian glands ([2]; 0.25 h after last dose): 222000 ng Equivalents ^14C-F6H8/g
Mean concentration of radioactivity, Sclera (anterior) ([2]; 0.25 h after last dose): 3550 ng Equivalents ^14C-F6H8/g
Mean concentration of radioactivity, Tears ([2]; 0.25 h after last dose): 2330000 ng Equivalents ^14C-F6H8/g
Mean concentration of radioactivity, Conjunctiva (bulbar) ([2]; 0.5 h after last dose): 5280 ng Equivalents ^14C-F6H8/g
Mean concentration of radioactivity, Conjunctiva (palpebral) ([2]; 0.5 h after last dose): 11900 ng Equivalents ^14C-F6H8/g
Mean concentration of radioactivity, Cornea ([2]; 0.5 h after last dose): 21000 ng Equivalents ^14C-F6H8/g
Mean concentration of radioactivity, Lacrimal gland (accessory) ([2]; 0.5 h after last dose): 8190 ng Equivalents ^14C-F6H8/g
Mean concentration of radioactivity, Lacrimal gland (main) ([2]; 0.5 h after last dose): 8140 ng Equivalents ^14C-F6H8/g
Mean concentration of radioactivity, Meibomian glands ([2]; 0.5 h after last dose): 145000 ng Equivalents ^14C-F6H8/g
Mean concentration of radioactivity, Sclera (anterior) ([2]; 0.5 h after last dose): 2650 ng Equivalents ^14C-F6H8/g
Mean concentration of radioactivity, Tears ([2]; 0.5 h after last dose): 872000 ng Equivalents ^14C-F6H8/g
Mean concentration of radioactivity, Conjunctiva (bulbar) ([2]; 1 h after last dose): 4440 ng Equivalents ^14C-F6H8/g
Mean concentration of radioactivity, Conjunctiva (palpebral) ([2]; 1 h after last dose): 11300 ng Equivalents ^14C-F6H8/g
Mean concentration of radioactivity, Cornea ([2]; 1 h after last dose): 27600 ng Equivalents ^14C-F6H8/g
Mean concentration of radioactivity, Lacrimal gland (accessory) ([2]; 1 h after last dose): 4770 ng Equivalents ^14C-F6H8/g
Mean concentration of radioactivity, Lacrimal gland (main) ([2]; 1 h after last dose): 4610 ng Equivalents ^14C-F6H8/g
Mean concentration of radioactivity, Meibomian glands ([2]; 1 h after last dose): 92900 ng Equivalents ^14C-F6H8/g
Mean concentration of radioactivity, Sclera (anterior) ([2]; 1 h after last dose): 3920 ng Equivalents ^14C-F6H8/g
Mean concentration of radioactivity, Tears ([2]; 1 h after last dose): 742000 ng Equivalents ^14C-F6H8/g
Mean concentration of radioactivity, Conjunctiva (bulbar) ([2]; 2 h after last dose): 3970 ng Equivalents ^14C-F6H8/g
Mean concentration of radioactivity, Conjunctiva (palpebral) ([2]; 2 h after last dose): 7510 ng Equivalents ^14C-F6H8/g
Mean concentration of radioactivity, Cornea ([2]; 2 h after last dose): 15900 ng Equivalents ^14C-F6H8/g
Mean concentration of radioactivity, Lacrimal gland (accessory) ([2]; 2 h after last dose): 5140 ng Equivalents ^14C-F6H8/g
Mean concentration of radioactivity, Lacrimal gland (main) ([2]; 2 h after last dose): 5040 ng Equivalents ^14C-F6H8/g
Mean concentration of radioactivity, Meibomian glands ([2]; 2 h after last dose): 100000 ng Equivalents ^14C-F6H8/g
Mean concentration of radioactivity, Sclera (anterior) ([2]; 2 h after last dose): 2080 ng Equivalents ^14C-F6H8/g
Mean concentration of radioactivity, Tears ([2]; 2 h after last dose): 832000 ng Equivalents ^14C-F6H8/g
Mean concentration of radioactivity, Conjunctiva (bulbar) ([2]; 4 h after last dose): 3840 ng Equivalents ^14C-F6H8/g
Mean concentration of radioactivity, Conjunctiva (palpebral) ([2]; 4 h after last dose): 6920 ng Equivalents ^14C-F6H8/g
Mean concentration of radioactivity, Cornea ([2]; 4 h after last dose): 17500 ng Equivalents ^14C-F6H8/g
Mean concentration of radioactivity, Lacrimal gland (accessory) ([2]; 4 h after last dose): 9280 ng Equivalents ^14C-F6H8/g
Mean concentration of radioactivity, Lacrimal gland (main) ([2]; 4 h after last dose): 8890 ng Equivalents ^14C-F6H8/g
Mean concentration of radioactivity, Meibomian glands ([2]; 4 h after last dose): 70300 ng Equivalents ^14C-F6H8/g
Mean concentration of radioactivity, Sclera (anterior) ([2]; 4 h after last dose): 3470 ng Equivalents ^14C-F6H8/g
Mean concentration of radioactivity, Tears ([2]; 4 h after last dose): 103000 ng Equivalents ^14C-F6H8/g
Mean concentration of radioactivity, Conjunctiva (bulbar) ([2]; 8 h after last dose): 2970 ng Equivalents ^14C-F6H8/g
Mean concentration of radioactivity, Conjunctiva (palpebral) ([2]; 8 h after last dose): 5160 ng Equivalents ^14C-F6H8/g
Mean concentration of radioactivity, Cornea ([2]; 8 h after last dose): 22000 ng Equivalents ^14C-F6H8/g
Mean concentration of radioactivity, Lacrimal gland (accessory) ([2]; 8 h after last dose): 5100 ng Equivalents ^14C-F6H8/g
Mean concentration of radioactivity, Lacrimal gland (main) ([2]; 8 h after last dose): 4650 ng Equivalents ^14C-F6H8/g
Mean concentration of radioactivity, Meibomian glands ([2]; 8 h after last dose): 52900 ng Equivalents ^14C-F6H8/g
Mean concentration of radioactivity, Sclera (anterior) ([2]; 8 h after last dose): 2650 ng Equivalents ^14C-F6H8/g
Mean concentration of radioactivity, Tears ([2]; 8 h after last dose): 32200 ng Equivalents ^14C-F6H8/g
Mean concentration of radioactivity, Conjunctiva (bulbar) ([2]; 24 h after last dose): 2750 ng Equivalents ^14C-F6H8/g
Mean concentration of radioactivity, Conjunctiva (palpebral) ([2]; 24 h after last dose): 4410 ng Equivalents ^14C-F6H8/g
Mean concentration of radioactivity, Cornea ([2]; 24 h after last dose): 16200 ng Equivalents ^14C-F6H8/g
Mean concentration of radioactivity, Lacrimal gland (accessory) ([2]; 24 h after last dose): 3480 ng Equivalents ^14C-F6H8/g
Mean concentration of radioactivity, Lacrimal gland (main) ([2]; 24 h after last dose): 3630 ng Equivalents ^14C-F6H8/g
Mean concentration of radioactivity, Meibomian glands ([2]; 24 h after last dose): 45500 ng Equivalents ^14C-F6H8/g
Mean concentration of radioactivity, Sclera (anterior) ([2]; 24 h after last dose): 2410 ng Equivalents ^14C-F6H8/g
Mean concentration of radioactivity, Tears ([2]; 24 h after last dose): 46800 ng Equivalents ^14C-F6H8/g
Highest mean concentration, Meibomian glands [2, 3]: 222000 ng equivalents ^14C—F6H8/g
Highest mean concentration, accessory lacrimal gland [2, 3]: 9280 ng equivalents ^14C—F6H8/g
Highest mean concentration, bulbar conjunctiva [2, 3]: 8290 ng equivalents ^14C—F6H8/g
Highest mean concentration, cornea [2, 3]: 27600 ng equivalents ^14C—F6H8/g
Highest mean concentration, main lacrimal gland [2, 3]: 8890 ng equivalents ^14C—F6H8/g
Highest mean concentration, palpebral conjunctiva [2, 3]: 14000 ng equivalents ^14C—F6H8/g
Highest mean concentration, tears [2, 3]: 2330000 ng equivalents ^14C—F6H8/g
Ocular tissue concentrations, multiple compared to single topical ocular administration ([2]; multiple vs single dose scheme): higher concentrations
